Data on five compounds can be found in patent publication US11369590B2, “PSMA binding ligand-linker conjugates and methods for using” (Purdue Research Foundation, priority 2007, dated 2022).

Like-named read-outs stand apart in the source and are kept apart here. *1 amine or outer side, *2 acyl side, *3 side chain or, on linkers, in order; H or OH if unused. Where a SMILES comes first, the peptide text is derived from it. Side-chain parts run from the residue outwards. [ ]: non-standard residue; d: D form. γGlu = O=C(O)[C@H](CCC(=O)[*:2])N[*:1]; Dap = NC[C@H](N)C(=O)O; Aoc = NCCCCCCCC(=O)O; CO = O=C([*:1])[*:2]

Data set [1] concerns the target PSMA (Homo sapiens, UniProt Q04609). Conditions: PSMA ligand of formula drawing 51, R^1 as drawn; cited from earlier work.
In data set [2] the test system is LNCaP tumors. Description: In vivo imaging of LNCaP tumors in mouse using DUPA-99mTc. As to the method: (§1) In Vivo Imaging of Tumors in Mouse Using dupa-99 mTc. To further establish the specificity of our DUPA conjugates for prostate cancer cells, DUPA-99 mTc was injected intraperitoneally (i.p.) into athymic nude mice bearing LNCaP tumors on their shoulders. After 4 h to allow for clearance of unbound conjugate, the distribution of the retained DUPA-99 mTc was imaged by gamma scintigraphy. […] In vivo specificity of the PSMA-targeted imaging agent was further tested by prior administration of excess PMPA to block all PSMA sites before DUPA-99 mTc administration. […] To further document this specificity, the radiotracer was also administered to two PSMA negative mouse xenograft models [A549 (a human lung cancer cell line) and KB (a human nasopharyngeal cancer cell line)], and again whole body images were taken. […] These studies thus confirm that very little DUPA-99 mTc binding occurs to sites unrelated to PSMA in vivo.
(§2) Overlay of whole-body radioimages on white light images of mice bearing LNCaP tumors that were treated with DUPA-99 mTc in the absence 7D(a, c) or presence 7D(b, d) of 100-fold molar excess PMPA. Overlay of radioimages on white light images were also obtained of mice bearing an A549 tumor 7D(e) or a KB tumor 7D(f) that were similarly treated with DUPA-99 mTc. Except in images 7D(a) and 7D(b), kidneys were shielded with lead pads. […]

Data set [3] concerns LNCaP tumors. Description: In vivo imaging of tumors in mouse using PSMA-99mTc compounds. Conditions: mice with LNCaP tumors, 4 hours after intraperitoneal injection. As to the method:
In Vivo Imaging of Tumors in Mouse Using PSMA-99 mTc. When tumors reached a volume of between 500-600 mm3, 99 mTc-labeled compounds (e.g. SK28-99 mTc, SK60-99 mTc, etc) prepared as described, were administered through intraperitoneal injection […]. Four hours later, animals were euthanized and blood was taken by cardio punch and transferred to individual gamma scintigraphy vials per each animal. The imaging experiments were carried out using either a Kodak or gamma scintigraphic camera imager (FIGS. 6A, 6B, 6C, 7A, 7B and 7C). [Note: PMPA was injected 30 minutes before injecting SK28 -99 mTc.
FIGS. 6A, 6B, and 6C show images of mice with human LNCaP tumors using SK28-99 mTc (radiolabeled 14 Atom spacer).

Data set [4] deals with LNCaP cells. Conditions: 1 hour. As to the method:
Quantification of PSMA Molecules on LNCaP Cells. […] Cells were rinsed three times with 1.0 mL of RPMI. Cells were lysed with tris-buffer, transferred to individual gamma scintigraphy vials, and radioactivity was counted. The plot of cell bound radioactivity verses concentration of radiolabeled compound was used to calculate number of PSMA/LNCaP cell. The radioactivity of a 30 nM sample of SK28-99 mTc (20 uL) was counted. At 4° C. (to prevent endocytosis of PSMA), the number of moles in the 30 nM sample=30 nM×20 uL=(30×10-9 mol/L)×(20×10-6 L)=6×10-13 mol.

Data set [5] relates to A549 tumors. Conditions: mouse, in vivo. As to the method:
as §1, §2

For data set [6], the system named is KB tumors. Conditions: mouse, in vivo. The procedure: as §1, §2
Data set [7] deals with LNCaP cells. Description: [3H]-Thymidine incorporation assay, toxicity to LNCaP cells in culture. The format is cell-based, human. Conditions: LNCaP cells pulsed 2 h, additional 66 h in fresh medium. The procedure:
Evaluation of a PSMA-Targeted Therapeutic Agent in Vitro. Analysis of SK71 (FIG. 12A), SK77 (FIG. 12B), SK37 (FIG. 12C), and SK45 (FIG. 12D), toxicity to LNCaP cells in culture. LNCaP cells were pulsed for 2 h with increasing concentrations of SK71 or SK77 in the presence (▴) or absence (▪) of 100-fold molar excess PMPA. After 2× washes, cells were incubated an additional 66 h in fresh medium at 37° C. Cell viability was then analyzed using the [3H]-thymidine incorporation assay, as described herein. Data were obtained in a single experiment and error bars represent s.d. (n=3 wells per concentration).

Data set [8] can be described thus: Single dose toxicity in live mice. Conditions: mouse, in vivo, single dosing. The text has this:
Single dose toxicity in live mice. Administration of SK71 was in a single dose as indicated. […] (See FIG. 9A)

The nature of data set [9]: Multiple dose toxicity in live mice. The format is in vivo, mouse. As to the method: Multiple dose toxicity in live mice. SK71 was administered in 5 doses on alternate days (M, W, F, M, W). […] (See FIG. 9B)
Data set [10] relates to LNCaP tumors. Description: Efficacy study compared to control group and competition group. Format: in vivo, mouse. As to the method: Efficacy study compared to control group and competition group. Animals were treated with (a) the conjugate SK71 administered in 5 doses on alternate days (M, W, F, M, W) at […], and compared to (b) vehicle treated animals (FIG. 10B), and to (c) animals treated with the conjugate in conjunction with PMPA. […] The competition experiments (See FIG. 10C) indicate that the successful treatment of the implanted tumor is related to selective or specific targeting of PSMA mediated delivery.

Chain of PSMA (Q04609 whole entry, species assumed): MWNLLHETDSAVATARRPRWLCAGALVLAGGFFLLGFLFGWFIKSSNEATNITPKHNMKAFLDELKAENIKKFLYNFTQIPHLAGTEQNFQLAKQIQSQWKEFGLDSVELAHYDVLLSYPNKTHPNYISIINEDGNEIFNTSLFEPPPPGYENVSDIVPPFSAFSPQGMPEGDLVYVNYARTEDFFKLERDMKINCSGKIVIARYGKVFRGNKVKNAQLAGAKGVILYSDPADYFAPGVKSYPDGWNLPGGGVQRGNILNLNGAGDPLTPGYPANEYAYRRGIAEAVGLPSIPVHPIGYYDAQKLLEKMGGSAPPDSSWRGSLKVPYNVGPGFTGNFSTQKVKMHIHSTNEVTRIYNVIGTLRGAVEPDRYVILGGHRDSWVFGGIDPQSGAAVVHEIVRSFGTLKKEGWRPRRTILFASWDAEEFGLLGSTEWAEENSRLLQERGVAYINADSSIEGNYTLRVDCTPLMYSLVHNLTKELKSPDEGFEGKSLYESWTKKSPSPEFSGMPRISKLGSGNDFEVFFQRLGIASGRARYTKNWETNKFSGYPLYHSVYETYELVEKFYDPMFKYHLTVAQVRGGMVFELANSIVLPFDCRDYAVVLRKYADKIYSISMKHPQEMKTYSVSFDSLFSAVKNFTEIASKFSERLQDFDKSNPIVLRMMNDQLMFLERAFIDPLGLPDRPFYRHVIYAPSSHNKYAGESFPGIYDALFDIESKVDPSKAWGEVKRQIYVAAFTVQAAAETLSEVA

The term Ki denotes the equilibrium dissociation constant of an inhibitor or competing ligand from its target. Take `O=C(O)CCC(NC(=O)NC(CCC(=O)O)C(=O)O)C(=O)O` (centres unmarked): the Ki in [1] was 8 nM.

Consider `O=C(O)CCC(NC(=O)NC(CCC(=O)O)c1nnn[nH]1)C(=O)O` (centres unmarked), for which, in [1], the Ki is 335 nM.

For the compound `N[C@@H](CNC(=O)[C@H](Cc1ccccc1)NC(=O)[C@H](Cc1ccccc1)NC(=O)CCCCCCCNC(=O)CC[C@H](NC(=O)N[C@@H](CCC(=O)O)C(=O)O)C(=O)O)C(=O)N[C@@H](CC(=O)O)C(=O)N[C@@H](CS)C(=O)O` [SK28-^99mTc, metal not drawn] (H-[Dap]([Phe-Phe-Aoc-γGlu-CO-Glu])-Asp-Cys-OH), the “tumor uptake after PMPA block” value in [2] (LNCaP tumors, prior administration of 100-fold molar excess PMPA) is recorded as “no DUPA-99 mTc uptake”. The “distribution of retained radiotracer (gamma scintigraphy)” value in data set [2] (nude mice bearing LNCaP tumors, 4 h after i.p. injection, without PMPA) is “accumulated mainly in the PSMA positive LNCaP tumor”. The “distribution of radioactivity (imaging)” value in [3] is given as “distribution was limited to kidneys”. Also, the “cell bound radioactivity at the saturation point” value in data set [4] (4° C.) is 12 000 cpm; in data set [4] (37° C.) it was 33,000 cpm. Moreover, the radioactivity in tumor entry in data set [5] and in data set [6] was “no radioactivity was observed” in each case.

What is called IC50 is the point on the concentration scale where inhibition reaches its midpoint. Read a low IC50 as higher potency. For `CC[C@@]1(OC(=O)OCCSSC[C@H](NC(=O)[C@H](CC(=O)O)NC(=O)[C@@H](N)CNC(=O)[C@H](Cc2ccccc2)NC(=O)[C@H](Cc2ccccc2)NC(=O)CCCCCCCNC(=O)CC[C@H](NC(=O)N[C@@H](CCC(=O)O)C(=O)O)C(=O)O)C(=O)O)C(=O)OCc2c1cc1n(c2=O)Cc2cc3ccccc3nc2-1` [SK45], the IC50 in data set [7] is ~29 nM.

As to `CCCC(=O)OCN(C(=O)[C@@H](NC(=O)[C@H]1CCCCN1C)C(C)CC)[C@H](C[C@@H](OC(C)=O)c1nc(C(=O)N[C@@H](Cc2ccc(O)cc2)C[C@H](C)C(=O)NNC(=O)OCCSSC[C@H](NC(=O)[C@H](Cc2ccccc2)NC(=O)[C@H](CC(=O)O)NC(=O)CC[C@H](NC(=O)CC[C@H](NC(=O)N[C@@H](CCC(=O)O)C(=O)O)C(=O)O)C(=O)O)C(=O)O)cs1)C(C)C` (some centres unmarked) [SK71], the MTD is ~4.5 µmol/kg in data set [8] and 2 µmol/kg in data set [9] (mouse, in vivo, multiple dosing, 5 doses on alternate days, mice). The IC50 in [7] is ~2 nM. Moreover, the visible tumors result in [9] (LNCaP tumors, 2 and 4 μmol/kg groups, after 18 days of treatment) is listed as “no mice in the two treated groups had visible tumors”. The “tumor size during treatment” value in data set [10] (1 μmol/kg, 5 doses on alternate days, starting tumor size approximately 250 mm3) is recorded as “successive decrease in tumor size”. Also, in data set [10] (1 μmol/kg, at the cessation of dosing), the “tumor volume after dosing” value is recorded as “tumor volumes rebounded”. Also, the “tumor response at higher dose” value in data set [10] (at least 2 μmol/kg, during the testing period) is reported as “complete disappearance of the tumor”.
